Where two headings read alike, the source gives them in different places.
Assays:
human TLR9 = human TLR9 (Homo sapiens (Human), UniProt Q9NR96); test: TLR9 inhibition reporter assay (HEK-Blue cells, SEAP reporter, ODN2006 stimulation); conditions: read-out: TLR9 IC50, ODN2006 5 nM;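 further: SEAP driven by IFN-β minimal promoter with five NF-κB and AP-1 sites, compounds 0.05 nM–50 µM in DMSO, 22 h, inhibition scaled between agonist plus DMSO and reference inhibitor wells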
human TLR7 = human TLR7 (Homo sapiens (Human), UniProt Q9NYK1); test: TLR7 inhibition reporter assay (HEK-Blue cells, SEAP reporter, gardiquimod stimulation); assay type: cell-based; conditions: gardiquimod 7.5 μM
Sequence of human TLR7 (Q9NYK1 27-1049): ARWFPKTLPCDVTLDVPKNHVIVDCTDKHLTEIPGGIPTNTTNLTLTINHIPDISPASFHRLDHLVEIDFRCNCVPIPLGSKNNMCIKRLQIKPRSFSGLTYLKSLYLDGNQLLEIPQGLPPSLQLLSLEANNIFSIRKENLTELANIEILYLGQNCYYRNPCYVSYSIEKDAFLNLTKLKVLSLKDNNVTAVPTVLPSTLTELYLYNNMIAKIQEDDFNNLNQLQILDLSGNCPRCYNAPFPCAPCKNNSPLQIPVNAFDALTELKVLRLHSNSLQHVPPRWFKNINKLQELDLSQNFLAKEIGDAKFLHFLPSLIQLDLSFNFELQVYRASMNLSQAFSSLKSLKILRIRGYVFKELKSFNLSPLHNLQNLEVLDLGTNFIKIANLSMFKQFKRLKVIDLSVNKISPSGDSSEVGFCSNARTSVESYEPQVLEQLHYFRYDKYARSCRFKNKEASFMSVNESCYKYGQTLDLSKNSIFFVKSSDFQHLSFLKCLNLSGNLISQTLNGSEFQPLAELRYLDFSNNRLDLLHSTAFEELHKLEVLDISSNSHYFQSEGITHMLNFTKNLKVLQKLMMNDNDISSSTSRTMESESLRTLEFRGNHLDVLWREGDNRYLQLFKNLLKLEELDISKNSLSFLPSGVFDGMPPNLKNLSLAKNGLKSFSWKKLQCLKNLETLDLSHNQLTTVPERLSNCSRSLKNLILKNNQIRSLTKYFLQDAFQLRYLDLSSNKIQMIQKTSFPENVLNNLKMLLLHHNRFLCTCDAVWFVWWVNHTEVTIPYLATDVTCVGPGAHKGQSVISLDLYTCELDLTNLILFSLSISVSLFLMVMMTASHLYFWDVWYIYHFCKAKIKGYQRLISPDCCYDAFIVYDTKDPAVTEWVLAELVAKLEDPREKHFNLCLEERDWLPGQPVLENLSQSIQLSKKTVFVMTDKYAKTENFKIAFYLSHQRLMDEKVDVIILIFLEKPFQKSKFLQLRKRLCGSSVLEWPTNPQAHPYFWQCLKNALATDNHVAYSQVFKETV

human TLR8 = human TLR8 (Homo sapiens (Human), UniProt Q9NR97); test: TLR8 inhibition reporter assay (HEK-Blue cells, SEAP reporter, R848 stimulation); conditions: read-out: TLR8 IC50, R848 15.9 μM;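 further: SEAP under an IFN-β minimal promoter carrying five NF-κB and AP-1 sites, 22 h at 37 °C, doses 0.05 nM–50 µM, inhibition scaled between agonist-plus-DMSO and reference-inhibitor wells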
Sequence of human TLR8 (Q9NR97 27-1041): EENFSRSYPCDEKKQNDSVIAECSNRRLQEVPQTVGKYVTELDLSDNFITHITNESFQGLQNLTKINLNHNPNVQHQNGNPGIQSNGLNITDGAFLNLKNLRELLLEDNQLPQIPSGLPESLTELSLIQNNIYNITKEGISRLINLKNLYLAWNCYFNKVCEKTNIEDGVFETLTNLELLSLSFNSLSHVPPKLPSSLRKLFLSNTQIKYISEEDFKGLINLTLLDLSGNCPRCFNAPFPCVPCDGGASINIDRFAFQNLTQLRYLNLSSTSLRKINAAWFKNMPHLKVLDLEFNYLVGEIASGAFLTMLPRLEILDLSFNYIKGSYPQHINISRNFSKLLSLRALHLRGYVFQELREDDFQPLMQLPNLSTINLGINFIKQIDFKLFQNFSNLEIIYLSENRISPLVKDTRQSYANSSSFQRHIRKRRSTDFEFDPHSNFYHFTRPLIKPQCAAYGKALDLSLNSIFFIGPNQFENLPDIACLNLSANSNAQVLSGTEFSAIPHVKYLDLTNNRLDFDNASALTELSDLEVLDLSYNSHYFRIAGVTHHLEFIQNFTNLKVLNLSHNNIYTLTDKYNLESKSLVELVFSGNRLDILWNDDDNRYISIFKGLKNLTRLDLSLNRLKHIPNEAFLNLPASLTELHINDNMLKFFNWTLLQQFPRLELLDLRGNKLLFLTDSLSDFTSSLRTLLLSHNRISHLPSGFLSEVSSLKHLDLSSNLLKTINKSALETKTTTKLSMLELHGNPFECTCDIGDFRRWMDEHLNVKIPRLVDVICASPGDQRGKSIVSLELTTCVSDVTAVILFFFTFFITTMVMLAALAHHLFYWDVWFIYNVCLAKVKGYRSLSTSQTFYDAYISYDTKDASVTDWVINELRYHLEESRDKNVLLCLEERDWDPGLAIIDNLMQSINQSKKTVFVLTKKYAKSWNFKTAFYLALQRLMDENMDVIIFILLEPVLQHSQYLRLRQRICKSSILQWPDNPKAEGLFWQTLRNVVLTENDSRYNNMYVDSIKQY

[1] = HEK-Blue cells overexpressing human TLR9, SEAP reporter
[2] = HEK-Blue cells overexpressing human TLR7, SEAP reporter
[3] = HEK-Blue cells overexpressing human TLR8, SEAP reporter

Sequence of human TLR9 (Q9NR96 26-1032): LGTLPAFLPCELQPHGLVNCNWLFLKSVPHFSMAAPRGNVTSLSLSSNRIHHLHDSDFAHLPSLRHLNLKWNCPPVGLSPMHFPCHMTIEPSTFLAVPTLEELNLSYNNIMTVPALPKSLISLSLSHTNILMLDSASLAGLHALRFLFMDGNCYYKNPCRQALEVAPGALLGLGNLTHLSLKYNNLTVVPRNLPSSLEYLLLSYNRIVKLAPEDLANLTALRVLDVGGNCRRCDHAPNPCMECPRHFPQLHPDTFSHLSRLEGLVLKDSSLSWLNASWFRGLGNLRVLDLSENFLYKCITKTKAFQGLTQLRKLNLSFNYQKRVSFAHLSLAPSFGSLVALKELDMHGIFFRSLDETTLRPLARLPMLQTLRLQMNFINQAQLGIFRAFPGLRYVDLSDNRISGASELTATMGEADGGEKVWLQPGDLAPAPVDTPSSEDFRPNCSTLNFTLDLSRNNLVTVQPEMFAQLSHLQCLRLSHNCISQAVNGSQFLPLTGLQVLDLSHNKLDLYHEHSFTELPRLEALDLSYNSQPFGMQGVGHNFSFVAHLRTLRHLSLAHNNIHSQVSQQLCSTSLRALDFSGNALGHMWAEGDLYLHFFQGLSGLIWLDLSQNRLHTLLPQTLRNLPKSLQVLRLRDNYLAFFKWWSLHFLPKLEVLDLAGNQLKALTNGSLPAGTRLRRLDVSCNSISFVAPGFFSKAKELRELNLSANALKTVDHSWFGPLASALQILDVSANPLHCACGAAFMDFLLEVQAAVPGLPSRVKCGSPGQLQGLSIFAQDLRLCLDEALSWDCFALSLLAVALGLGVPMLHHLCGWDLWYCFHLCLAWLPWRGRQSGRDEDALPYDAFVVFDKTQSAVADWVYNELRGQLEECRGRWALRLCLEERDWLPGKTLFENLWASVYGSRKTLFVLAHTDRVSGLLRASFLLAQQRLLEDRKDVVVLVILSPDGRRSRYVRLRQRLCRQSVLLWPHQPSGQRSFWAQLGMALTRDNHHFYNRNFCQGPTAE

| Structure (SMILES) | IC50 (human TLR9; [1]) | IC50 (human TLR7; [2]) | IC50 (human TLR8; [3]) | IC50 (human TLR9; HEK-Blue cells) | IC50 (human TLR7; HEK-Blue cells) | IC50 (human TLR8; HEK-Blue cells) |
| --- | --- | --- | --- | --- | --- | --- |
| Cc1c(-c2[nH]c3ccc(N4C[C@H]5C[C@@H]4CN5C(=O)CCN(C)C)nc3c2C(C)C)cn2ncnc2c1C [Example 773] | 2710 nM | 3 nM | 4.6 nM |  |  |  |
| Cc1c(-c2[nH]c3ccc(N4C[C@@H]5C[C@H]4CN5CC(N)=O)nc3c2C(C)C)cn2ncnc2c1C [Example 774] | 18600 nM | 3.7 nM | 5.7 nM |  |  |  |
| Cc1c(-c2[nH]c3ccc(N4C[C@@H]5C[C@H]4CN5CCC(N)=O)nc3c2C(C)C)cn2ncnc2c1C [Example 775] | 8450 nM | 3.8 nM | 4.4 nM |  |  |  |
| Cc1c(-c2[nH]c3ccc(N4C[C@@H]5C[C@H]4CN5CCC(=O)N(C)C)nc3c2C(C)C)cn2ncnc2c1C [Example 776] | 13100 nM | 6 nM | 5.3 nM |  |  |  |
| Cc1c(-c2[nH]c3ccc(N4C[C@@H]5C[C@H]4CN5CCS(C)(=O)=O)nc3c2C(C)C)cn2ncnc2c1C [Example 777] | 14800 nM | 9.2 nM | 7.4 nM |  |  |  |
| Cc1c(-c2[nH]c3ccc(N4C[C@@H]5C[C@H]4CN5CCCS(C)(=O)=O)nc3c2C(C)C)cn2ncnc2c1C [Example 778] | 7910 nM | 2.7 nM | 2.3 nM |  |  |  |
| Cc1c(-c2[nH]c3ccc(N4C[C@@H]5C[C@H]4CN5C4COC4)nc3c2C(C)C)cn2ncnc2c1C [Example 779] | 34500 nM | 7.3 nM | 11 nM |  |  |  |
| Cc1c(-c2[nH]c3ccc(N4C[C@@H]5C[C@H]4CN5C4CCOCC4)nc3c2C(C)C)cn2ncnc2c1C [Example 780] | 5220 nM | 1.9 nM | 5.4 nM |  |  |  |
| Cc1c(-c2[nH]c3ccc(N4C[C@@H]5C[C@H]4CN5C4CCS(=O)(=O)CC4)nc3c2C(C)C)cn2ncnc2c1C [Example 781] | 14400 nM | 11 nM | 18 nM |  |  |  |
| Cc1c(-c2[nH]c3ccc(N4C[C@@H]5C[C@H]4CN5C(C)C)nc3c2C(C)C)cn2ncnc2c1C [Example 783] | 8380 nM | 1.8 nM | 3.9 nM |  |  |  |
| Cc1c(-c2[nH]c3ccc(N4C[C@@H]5C[C@H]4CN5C(=O)CN(C)C)nc3c2C(C)C)cn2ncnc2c1C [Example 784] | 4530 nM | 2.9 nM | 9.4 nM |  |  |  |
| Cc1c(-c2[nH]c3ccc(N4C[C@@H]5C[C@H]4CN5C(=O)CCN(C)C)nc3c2C(C)C)cn2ncnc2c1C [Example 785] | 4680 nM | 8 nM | 13 nM |  |  |  |
| Cc1c(-c2[nH]c3ccc(N4C[C@H]5C[C@@H]4CN5C(C)C)nc3c2C(C)C)cn2ncnc2c1C [Example 786] | 14700 nM | 7.7 nM | 12 nM |  |  |  |
| Cc1c(-c2[nH]c3ccc(N4C[C@@H]5C[C@H]4CN5Cc4cn(C)nn4)nc3c2C(C)C)cn2ncnc2c1C [Example 787] | 12300 nM | 9.4 nM | 4.9 nM |  |  |  |
| Cc1c(-c2[nH]c3ccc(N4C[C@@H](C)N(CCCS(C)(=O)=O)C[C@@H]4C)nc3c2C(C)C)cn2ncnc2c1C [Example 846] |  |  |  | 22600 nM | 0.55 nM | 1.2 nM |
| Cc1c(-c2[nH]c3ccc(N4CCN(C(=O)CN(C)C)[C@H](C)C4)nc3c2C(C)C)cn2ncnc2c1C [Example 849] |  |  |  | 8120 nM | 0.53 nM | 1.6 nM |
| Cc1c(-c2[nH]c3ccc(C4CC5(C4)CN(C)C5)nc3c2C(C)C)cn2ncnc2c1C [Example 1022] |  |  |  | 3650 nM | 0.91 nM | 1.9 nM |
| Cc1c(-c2[nH]c3ccc(C4CC5(C4)CN(C(C)C)C5)nc3c2C(C)C)cn2ncnc2c1C [Example 1023] |  |  |  | 6940 nM | 10 nM | 3.6 nM |
